The source of these data is paper PMC12697290, “Identification of novel PTP1B inhibitor for the treatment of LPS-induced myocardial apoptosis: machine learning based virtual screening and biological evaluation” (Journal of Enzyme Inhibition and Medicinal Chemistry, 2025).

For assay [1], the target named is T1, PTP1B (Homo sapiens, UniProt P18031).
T1 sequence (P18031 1-435): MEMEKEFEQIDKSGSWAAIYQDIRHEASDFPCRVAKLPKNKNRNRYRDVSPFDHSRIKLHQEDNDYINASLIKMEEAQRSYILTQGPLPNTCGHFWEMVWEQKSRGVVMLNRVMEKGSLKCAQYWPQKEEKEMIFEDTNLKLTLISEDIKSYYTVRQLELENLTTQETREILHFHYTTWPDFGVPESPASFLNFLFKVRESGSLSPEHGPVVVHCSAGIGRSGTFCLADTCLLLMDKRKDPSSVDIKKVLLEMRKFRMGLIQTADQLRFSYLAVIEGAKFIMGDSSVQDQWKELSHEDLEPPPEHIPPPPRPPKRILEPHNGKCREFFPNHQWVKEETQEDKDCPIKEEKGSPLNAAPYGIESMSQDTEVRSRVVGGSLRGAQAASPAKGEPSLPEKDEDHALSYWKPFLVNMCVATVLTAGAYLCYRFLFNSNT
Briefly: pNPP hydrolysis, absorbance at […] nm. The assay is classed as biochemical. Set-up: gene PTPN1; isolated enzyme. The following applies: 5 mM pNPP, 50 mM Hepes, 1 mM DTT, pH 7.0, 37 °C; 10 μM compound.

Assay [2] addresses T1, PTP1B. Briefly: cellular thermal shift assay (CETSA), Western blot. More on the design: gene PTPN1; endogenous protein in AC16 human cardiomyocytes, detected by Western blot (antibody 11334-1-AP). As to conditions: AC16 cells. The class given is cell-based. In general terms: Immunoblotting shows a protein as a band on a membrane.
Assay [3] concerns the target T2, TCPTP (Homo sapiens, UniProt P17706).
T2 sequence (P17706 1-415): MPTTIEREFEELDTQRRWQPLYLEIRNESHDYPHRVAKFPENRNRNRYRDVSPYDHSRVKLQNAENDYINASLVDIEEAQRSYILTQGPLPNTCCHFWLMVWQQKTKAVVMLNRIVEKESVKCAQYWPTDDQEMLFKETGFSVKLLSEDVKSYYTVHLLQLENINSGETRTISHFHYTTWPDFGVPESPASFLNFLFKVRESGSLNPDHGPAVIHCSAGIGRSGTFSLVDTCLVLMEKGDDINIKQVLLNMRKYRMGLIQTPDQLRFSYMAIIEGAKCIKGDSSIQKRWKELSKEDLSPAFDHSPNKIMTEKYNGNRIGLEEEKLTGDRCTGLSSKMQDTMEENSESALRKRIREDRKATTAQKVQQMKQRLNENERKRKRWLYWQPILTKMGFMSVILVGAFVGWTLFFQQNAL
Description: cellular thermal shift assay (CETSA), Western blot. The class given is cell-based. More on the design: gene PTPN2; endogenous protein in AC16 human cardiomyocytes, detected by Western blot (antibody 11214-1-AP). The following applies: AC16 cells.

For assay [4], the target named is T1, PTP1B. Briefly: pNPP hydrolysis, absorbance at […] nm. The class given is biochemical. More on the design: gene PTPN1; isolated enzyme.
Assay [5] concerns the target T2, TCPTP. Briefly: phosphatase inhibition assay (protocol printed for PTP1B: pNPP, […] nm). Set-up: gene PTPN2; isolated enzyme. The class given is biochemical.
For assay [6], the target named is T3, acidic phosphatase (ACP1) (Homo sapiens, UniProt P24666).
T3 construct: isolated enzyme
T3 sequence (P24666 2-158): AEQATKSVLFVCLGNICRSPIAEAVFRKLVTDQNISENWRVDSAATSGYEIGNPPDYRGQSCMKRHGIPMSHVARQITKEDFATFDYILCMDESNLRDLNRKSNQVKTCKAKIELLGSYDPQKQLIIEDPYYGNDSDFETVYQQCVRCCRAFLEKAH
The description is as above. The assay is classed as biochemical. The following applies: conditions not stated separately for ACP1.

What is called IC50 is the concentration at which inhibition is half-maximal. A higher IC50 goes with lower potency.

For `N#C/C(=C\c1ccc(OCC(=O)O)cc1)c1nc2ccccc2[nH]1` [PI-2], the “inhibitory rate at 20 μM” value at PTP1B [1] was 95.6%. The CETSA stabilisation result was “PI-2 could effectively enhance the PTP1B and TCPTP stability in vitro” on PTP1B [2]; “PI-2 could effectively enhance the PTP1B and TCPTP stability in vitro” on TCPTP [3]. Further, the 50% inhibitory concentration (IC50) at PTP1B [4] was 4.1 ± 0.3 µM; against TCPTP [5], 5.9 ± 2.4 µM; in assay [6], over 20 µM.

As for `CO/N=C(\C(=O)N[C@@H]1C(=O)N2C(C(=O)O)=C(CSc3nc(=O)c(O)nn3C)CS[C@H]12)c1csc(N)n1` [PI-1], the “inhibitory rate at 20 μM” value at PTP1B [1] was “compounds PI-1, PI-2 and PI-7 displayed a moderate to potent inhibitory activity against PTP1B”.

On to `O=C(O)COCC(=O)Nc1cc(SCC(O)CO)cc([N+](=O)[O-])c1` (centres unmarked) [PI-7], for which the “inhibitory rate at 20 μM” value on PTP1B [1] is “compounds PI-1, PI-2 and PI-7 displayed a moderate to potent inhibitory activity against PTP1B”.
